Entries after “also recorded” stand apart in the source; their conditions may differ.
Tests used:
Assay type in all cases: cell-based, human
[1] = tested on: CD34 cells; assay: CD34 cell expansion at Day 14 of the NK culture; settings: compound at 10 μM; Day 14 of the culture
Procedure: (§1) CD34^+ cells are cultured in the following medium formulations for the indicated number of days, and aliquots of cells are taken for assessment of cell count, cell viability, characterization of natural killer cell differentiation and functional evaluation.
(§2) Stage 1 medium: 90% Stem Cell Growth Medium (SCGM) (CellGro®), 10% Human Serum-AB, supplemented with 25 ng/mL or 250 ng/mL recombinant human thrombopoietin (TPO), 25 ng/mL recombinant human Flt3L, 27 ng/mL recombinant human stem cell factor (SCF), 25 ng/mL recombinant human IL-7, 0.05 ng/mL or 0.025 ng/mL recombinant human IL-6, 0.25 ng/mL or 0.125 ng/mL recombinant human granulocyte colony-stimulating factor (G-CSF), 0.01 ng/mL or 0.025 ng/mL recombinant human granulocyte-macrophage colony-stimulating factor (GM-CSF), 0.10% gentamicin, and 1 to 10 μm StemRegenin-1 (SR-1) or other stem cell mobilizing agent.
(§3) Stage 2 medium: 90% SCGM, 10% Human Serum-AB, supplemented with 25 ng/mL recombinant human Flt3L, 27 ng/mL recombinant human SCF, 25 ng/mL recombinant human IL-7, 20 ng/mL recombinant human IL-15, 0.05 ng/mL or 0.025 ng/mL recombinant human IL-6, 0.25 ng/mL or 0.125 ng/mL recombinant human granulocyte colony-stimulating factor (G-CSF), 0.01 ng/mL or 0.025 ng/mL recombinant human granulocyte-macrophage colony-stimulating factor (GM-CSF), 0.10% gentamicin, and 1 to […] SR1 or other stem cell mobilizing agent.
(§4) Cells are seeded at Day 0 at 3×10^4 cells/mL in Stage 1 media, and cells are tested for purity by a CD34+ and CD45+ count and viability by 7AAD staining. At Day 5 cells are counted and seeded to a concentration of 1×10^5 cells/mL with Stage 1 medium. At Day 7 cells are counted and seeded to a concentration of 1×10^5 cells/mL with Stage 1 medium.
At Day 10, cells are counted and seeded to a concentration of 1×10^5 cells/mL in Stage 2 medium. At Day 12, cells are counted and seeded to a concentration of 3×10^5 cells/mL in Stage 2 medium. At Day 14, cells are counted and seeded in Stage 3 medium. Cells are maintained in Stage 3 media until day 35. […]

[2] = tested on: NK cells; assay: NK cell expansion from CD34+ cells in three-stage NK culture, compound present for the first 14 days; settings: for expansion, differentiation and cytotoxicity profiles compared to SR1: PNK-007 culture; for expansion, differentiation and cytotoxicity profiles compared to SR1 / level of expansion compared to SR1 at Day 35: compound at 10 μM; for support of NK cell expansion (and differentiation), in words: compound at 10 μM during first 14 days of culture; for support of NK cell expansion (and differentiation), in words / level of expansion compared to SR1 at Day 35: Day 35; for level of expansion compared to SR1 at Day 35: SR1 at 10 μM as positive control
Procedure: as §1, §2, §3
Stage 3 medium: 90% STEMMACS′, 10% Human Serum-AB, 0.025 mM 2-mercaptoethanol (55 mM), supplemented with 22 ng/mL recombinant human SCF, 1000 U/mL recombinant human IL-2, 20 ng/mL recombinant human IL-7, 20 ng/mL recombinant human IL-15, 0.05 ng/mL or 0.025 ng/mL recombinant human IL-6, 0.25 ng/mL or 0.125 ng/mL recombinant human granulocyte colony-stimulating factor (G-CSF), 0.01 ng/mL or 0.025 ng/mL recombinant human granulocyte-macrophage colony-stimulating factor (GM-CSF), and 0.10% gentamicin.
as §4
At Day 10, cells are counted and seeded to a concentration of 1×10^5 cells/mL in Stage 2 medium. At Day 12, cells are counted and seeded to a concentration of 3×10^5 cells/mL in Stage 2 medium. At Day 14, cells are counted and seeded in Stage 3 medium. Cells are maintained in Stage 3 media until day 35.
(§5) UCB CD34+ cells were cultivated in presence of cytokines including thrombopoietin, SCF, Flt3 ligand, IL-7, IL-15 and IL-2 for 35 days to produce three-stage NK cells, as described in Example 1. Multi-color flow cytometry was used to determine the phenotypic characteristics of three-stage NK cells.
(§6) For biological testing, the compounds were provided to culture to evaluate their effects on NK cell expansion and differentiation. Specifically, donors of CD34+ cells (StemCell Technology) were thawed and expanded in vitro following NK culture protocol. During the first 14 days of the culture, each CRL compounds was dissolved in DMSO and added to the culture at 10 μM concentration. SR1 (at 10 μM) served as a positive control compound, while DMSO alone without any compound served as a negative control. At the end of the culture on Day 35, cell expansion, natural killer (NK) cell differentiation and cytotoxicity of the cells against K562 tumor cell line were characterized. Due to the large number of the compounds, the testing was performed in two experiments, CRL1-11 and CRL 12-22. The same donors were used for each experiment. Positive and negative controls were also included in both experiments.

[3] = tested on: NK cells; assay: NK cell differentiation at Day 35 by multi-color flow cytometry; settings: PNK-007 culture, compound at 10 μM
Description: as §5, §6

[4] = tested on: K562 tumor cells; assay: Cytotoxicity assay of compound cultured cells against K562 tumor cells; settings: 10:1 E:T ratio, both donors
Procedure: as §6
Cytotoxicity assay was run using compound cultured cells against K562 tumor cells at 10:1 effector to target ratio (FIG. 5) to evaluate cell functions.

Structure (SMILES) | CD34 cell expansion at Day 14 [1] | expansion, differentiation and cytotoxicity profiles compared to SR1 [2] | support of NK cell expansion (and differentiation), in words [2] | level of expansion compared to SR1 at Day 35 [2] | CD56+/CD11a+ subpopulation compared to SR1 [3] | killing activities of cultured cells compared to those cultured with SR1 [4]
Fc1cncc(-c2nc(NCCc3c[nH]c4ccccc34)c3occc3n2)c1 [CRL19, N-(2-(1H-indol-3-yl)ethyl)-2-(5-fluoropyridin-3-yl)furo[3,2-d]pyrimidin-4-amine] | achieved the highest CD34 cell expansion | very similar expansion, differentiation and cytotoxicity profiles as SR1 | supported cell expansion the best | – | – | –
CCC(C)Nc1nc(NCCc2c[nH]c3ccccc23)c2ccccc2n1 (centres unmarked) [CRL13, N^4-(2-(1H-indol-3-yl)ethyl)-N^2-(sec-butyl)quinazoline-2,4-diamine] | – | – | Except for CRL7 and CRL13, the rest of the compounds all resulted in a NK expansion; also recorded: all the compounds except CRL7 and CRL13 supported PNK-007 expansion and differentiation | – | – | –
N#Cc1cncc(-c2nc(NCCc3c[nH]c4ccccc34)c3occc3n2)c1 [CRL22, 5-(4-((2-(1H-indol-3-yl)ethyl)amino)furo[3,2-d]pyrimidin-2-yl)nicotinonitrile] | achieved the highest CD34 cell expansion | very similar expansion, differentiation and cytotoxicity profiles as SR1 | supported cell expansion the best | – | – | –
CC(C)c1csc2c(NCCc3c[nH]c4ccccc34)nc(-c3cncc(C#N)c3)nc12 [CRL17, 5-(4-((2-(1H-indol-3-yl)ethyl)amino)-7-isopropylthieno[3,2-d]pyrimidin-2-yl)nicotinonitrile] | – | – | – | slightly less expansion compared to SR1 | increased CD56+/CD11a+ subpopulation | increased killing activities of the cells
CCC(C)Nc1cc(-c2cncc(C#N)c2)nc(NCCc2c[nH]c3ccccc23)n1 (centres unmarked) [CRL7, 5-(2-((2-(1H-indol-3-yl)ethyl)amino)-6-(sec-butylamino)pyrimidin-4-yl)nicotinonitrile] | – | – | Except for CRL7 and CRL13, the rest of the compounds all resulted in a NK expansion; also recorded: all the compounds except CRL7 and CRL13 supported PNK-007 expansion and differentiation | – | – | –
Cc1cncc(-c2nc(NCCc3c[nH]c4ccccc34)c3scc(C(C)C)c3n2)c1 [CRL21, N-(2-(1H-indol-3-yl)ethyl)-7-isopropyl-2-(5-methylpyridin-3-yl)thieno[3,2-d]pyrimidin-4-amine] | – | – | – | slightly less expansion compared to SR1 | increased CD56+/CD11a+ subpopulation | increased killing activities of the cells
Cc1cncc(-c2nc(NCCc3c[nH]c4ccccc34)c3occc3n2)c1 [CRL20, N-(2-(1H-indol-3-yl)ethyl)-2-(5-methylpyridin-3-yl)furo[3,2-d]pyrimidin-4-amine] | achieved the highest CD34 cell expansion | very similar expansion, differentiation and cytotoxicity profiles as SR1 | supported cell expansion the best | – | – | –
CC(C)c1csc2c(NCCc3c[nH]c4ccccc34)nc(-c3cncc(F)c3)nc12 [CRL18, N-(2-(1H-indol-3-yl)ethyl)-2-(5-fluoropyridin-3-yl)-7-isopropylthieno[3,2-d]pyrimidin-4-amine] | – | – | – | slightly less expansion compared to SR1 | increased CD56+/CD11a+ subpopulation | increased killing activities of the cells

Source: patent publication US20230028680A1, “EXPANSION OF NATURAL KILLER CELLS AND ILC3 CELLS WITH NOVEL AROMATIC COMPOUNDS” (Celularity Inc., priority 2018, published 2023)
